Test results: patent publication US20260226064A1, “POLYCYCLIC COMPOUND FOR TREATING NEUROLOGICAL DISEASES AND TUMORS” (Shanghai Institute of Organic Chemistry, Chinese Academy of …, priority 2023, published 2026)

Tested on: acetylated microtubule in HEK293T cells
Assay: Microtubule-Stabilizing Activity Assay (acetylated microtubule immunoblot, HEK293T, colchicine challenge)
Type: cell-based
Settings: 1 h pre-incubation, then colchicine 1 μM 3 h, relative to CNDR-51657 at 500 nM = 1.00; for Microtubule-Stabilizing Activity 50 nM: compound 50 nM; for Microtubule-Stabilizing Activity 500 nM: compound 500 nM
Procedure: Compound solvent: 100% dimethyl sulfoxide (DMSO). Cell line: HEK293T (ATCC, CRL3216). Culture conditions: Cells were cultured in Dulbecco's Modified Eagle's Medium (DMEM) containing 10% fetal bovine serum and 1% penicillin/streptomycin. Cells were cultured at 37° C. in a Thermo-Fisher incubator with a humidified atmosphere of 5% carbon dioxide.
One day prior to the experiment, 100,000 cells were seeded at a density of 200,000 cells/ml in a 24-well plate.
On the day of the experiment, 20 μl of PBS phosphate buffer containing the test compound at experimental concentrations or an equivalent volume of DMSO was added to each well. After incubating at 37° C. for 1 hour, colchicine was added to each well at a final concentration of 1 μM, followed by an additional 3-hour incubation at 37° C. The plate was then placed on ice. The medium in each well was removed, and the cells were washed with ice-cold PBS. After aspirating the PBS, 0.1 mL of ice-cold RIPA lysis buffer (containing 0.5% sodium deoxycholate, 0.1% SDS, 1% NP-40, 5 mM EDTA, pH 8.0) was quickly added. Prior to use, a commercial protease inhibitor cocktail (1:500) and 1 μM deacetylase inhibitor Trichostatin A (Sangon Biotech Co., Ltd.) were added to the cell lysis buffer. The cell lysate were transferred to a 1.5 ml centrifuge tube, sonicated, and centrifuged at 13,000 rpm for 10 minutes. The supernatant was collected, and protein concentration was determined using the BCA assay.
Based on existing literature (Black, 1989; Kurt, 2011), acetylated microtubule was used as an indicator of microtubule polymerization to assess the microtubule-stabilizing efficacy of the compounds. HEK293T cell lysates were analyzed by SDS-PAGE (7.5% gel) and immunoblotted using acetylated microtubule antibody (1:20,000, Sigma-Aldrich, T7451) and α-microtubule antibody (1:2,000, Proteintech, 11224-1-AP). After incubation with fluorescent dye-conjugated IgG (1:40,000, Licor), the blots were visualized using an Odyssey-Dlx imaging system. Grayscale analysis was performed using ImageJ.
The compound activity was quantified with the microtubule-stabilizing activity of CNDR-51657 (C5) (Jane, 2016) at 500 nM as 1.00.

Row | Compound | Microtubule-Stabilizing Activity 50 nM | Microtubule-Stabilizing Activity 500 nM
1 | 6-(4-(((1R,5S,6r)-3-Azabicyclo[3.1.0]hexan-6-yl)methoxy)-2,6-difluorophenyl)-5-methyl-N-(2,2,2-trifluoroethyl)-[1,2,4]triazolo[1,5-a]pyrimidin-7-amine [Example 35] | 0.87 | 1.80
2 | CC(C)[C@@H](C)Nc1c(-c2c(F)cc(OC3CC4(CNC4)C3)cc2F)c(Cl)nc2ncnn12 [Example 1, (R)-6-(4-((2-azaspiro[3.3]hept-6-yl)oxy)-2,6-difluorophenyl)-5-chloro-N-(3-methylbut-2-yl)-[1,2,4]triazolo[1,5-a]pyrimidin-7-amine] | 0.36 | 0.71
3 | CC(C)[C@@H](C)Nc1c(-c2c(F)cc(OC3CC4(C3)CN(C)C4)cc2F)c(Cl)nc2ncnn12 [Example 2, (R)-6-(4-((2-methyl-2-azaspiro[3.3]hept-6-yl)oxy)-2,6-difluorophenyl)-5-chloro-N-(3-methylbut-2-yl)-[1,2,4]triazolo[1,5-a]pyrimidin-7-amine] | 0.29 | 0.71
4 | C[C@H](Nc1c(-c2c(F)cc(OC3CC4(CNC4)C3)cc2F)c(Cl)nc2ncnn12)C(F)(F)F [Example 3, (S)-6-(4-((2-Azaspiro[3.3]heptan-6-yl)oxy)-2,6-difluorophenyl)-5-chloro-N-(1,1,1-trifluoropropan-2-yl)-[1,2,4]triazolo[1,5-a]pyrimidin-7-amine] | 0.36 | 0.49
5 | CC(C)[C@@H](C)Nc1c(-c2c(F)cc(OC3CC4(CCNCC4)C3)cc2F)c(Cl)nc2ncnn12 [Example 5, (R)-6-(4-((7-Azaspiro[3.5]nonan-2-yl)oxy)-2,6-difluorophenyl)-5-chloro-N-(3-methylbutan-2-yl)-[1,2,4]triazolo[1,5-a]pyrimidin-7-amine] | 0.41 | 0.76
6 | CC(C)[C@@H](C)Nc1c(-c2c(F)cc(OC3CC4(CCN(C)CC4)C3)cc2F)c(Cl)nc2ncnn12 [Example 6, (R)-6-(4-((7-Methyl-7-azaspiro[3.5]nonan-2-yl)oxy)-2,6-difluorophenyl)-5-chloro-N-(3-methylbutan-2-yl)-[1,2,4]triazolo[1,5-a]pyrimidin-7-amine] | 0.25 | 0.38
7 | C[C@H](Nc1c(-c2c(F)cc(OC3CC4(CCNCC4)C3)cc2F)c(Cl)nc2ncnn12)C(F)(F)F [Example 7, (S)-6-(4-((7-Azaspiro[3.5]nonan-2-yl)oxy)-2,6-difluorophenyl)-5-chloro-N-(1,1,1-trifluoropropan-2-yl)-[1,2,4]triazolo[1,5-a]pyrimidin-7-amine] | 0.42 | 0.81
8 | C[C@H](Nc1c(-c2c(F)cc(OC3CC4(CCN(C)CC4)C3)cc2F)c(Cl)nc2ncnn12)C(F)(F)F [Example 8, (S)-6-(4-((7-Methyl-7-azaspiro[3.5]nonan-2-yl)oxy)-2,6-difluorophenyl)-5-chloro-N-(1,1,1-trifluoropropan-2-yl)-[1,2,4]triazolo[1,5-a]pyrimidin-7-amine] | 0.43 | 0.31
9 | CNC1CC2(C1)CC(Oc1cc(F)c(-c3c(Cl)nc4ncnn4c3N[C@H](C)C(C)C)c(F)c1)C2 (stereo partly drawn) [Example 9, (R)-5-Chloro-6-(2,6-difluoro-4-((6-(methylamino)spiro[3.3]heptan-2-yl)oxy)phenyl)-N-(3-methylbutan-2-yl)-[1,2,4]triazolo[1,5-a]pyrimidin-7-amine] | 0.53 | 1.74
10 | CC(C)[C@@H](C)Nc1c(-c2c(F)cc(OC3CC4(C3)CC(N(C)C)C4)cc2F)c(Cl)nc2ncnn12 (stereo partly drawn) [Example 10, (R)-5-Chloro-6-(4-((6-(dimethylamino)spiro[3.3]heptan-2-yl)oxy)-2,6-difluorophenyl)-N-(3-methylbutan-2-yl)-[1,2,4]triazolo[1,5-a]pyrimidin-7-amine] | 0.26 | 0.28
11 | C[C@H](Nc1c(-c2c(F)cc(OC3CC4(C3)CC(N(C)C)C4)cc2F)c(Cl)nc2ncnn12)C(F)(F)F (stereo partly drawn) [Example 12, (S)-5-chloro-6-(4-((6-(dimethylamino)spiro[3.3]heptan-2-yl)oxy)-2,6-difluorophenyl)-N-(1,1,1-trifluoropropan-2-yl)-[1,2,4]triazolo[1,5-a]pyrimidin-7-amine] | 0.30 | 0.78
12 | CNC1CC2(C1)CC(Oc1cc(F)c(-c3c(Cl)nc4ncnn4c3N[C@H](C)C3CCC3)c(F)c1)C2 (stereo partly drawn) [Example 13, (R)-5-chloro-N-(1-cyclobutylethyl)-6-(2,6-difluoro-4-((6-(methylamino)spiro[3.3]heptan-2-yl)oxy)phenyl)-[1,2,4]triazolo[1,5-a]pyrimidin-7-amine] | 0.35 | 1.39
13 | C[C@@H](Nc1c(-c2c(F)cc(OC3CC4(C3)CC(N(C)C)C4)cc2F)c(Cl)nc2ncnn12)C1CCC1 (stereo partly drawn) [Example 14, (R)-5-Chloro-N-(1-cyclobutylethyl)-6-(4-((6-(dimethylamino)spiro[3.3]heptan-2-yl)oxy)-2,6-difluorophenyl)-[1,2,4]triazolo[1,5-a]pyrimidin-7-amine] | 0.23 | 1.98
14 | CNC1CC2(C1)CC(Oc1cc(F)c(-c3c(Cl)nc4ncnn4c3NCC(F)(F)F)c(F)c1)C2 (centres unmarked) [Example 15, 5-Chloro-6-(2,6-difluoro-4-((6-(methylamino)spiro[3.3]heptan-2-yl)oxy)phenyl)-N-(2,2,2-trifluoroethyl)-[1,2,4]triazolo[1,5-a]pyrimidin-7-amine] | 0.15 | 1.60
15 | CN(C)C1CC2(CC(Oc3cc(F)c(-c4c(Cl)nc5ncnn5c4NCC(F)(F)F)c(F)c3)C2)C1 (centres unmarked) [Example 16] | 0.07 | 1.66
16 | CNC1CCC2(CC1)CC(Oc1cc(F)c(-c3c(Cl)nc4ncnn4c3N[C@H](C)C(C)C)c(F)c1)C2 (stereo partly drawn) [Example 17, (R)-5-Chloro-6-(2,6-difluoro-4-((7-(methylamino)spiro[3.5]nonan-2-yl)oxy)phenyl)-N-(3-methylbutan-2-yl)-[1,2,4]triazolo[1,5-a]pyrimidin-7-amine] | 0.21 | 0.89
17 | CC(C)[C@@H](C)Nc1c(-c2c(F)cc(OC3CC4(CCC(N(C)C)CC4)C3)cc2F)c(Cl)nc2ncnn12 (stereo partly drawn) [Example 18, (R)-5-Chloro-6-(2,6-difluoro-4-((7-(dimethylamino)spiro[3.5]nonan-2-yl)oxy)phenyl)-N-(3-methylbutan-2-yl)-[1,2,4]triazolo[1,5-a]pyrimidin-7-amine] | 0.07 | 0.68
18 | CNC1CCC2(CC1)CC(Oc1cc(F)c(-c3c(Cl)nc4ncnn4c3N[C@@H](C)C(F)(F)F)c(F)c1)C2 (stereo partly drawn) [Example 19, (S)-5-Chloro-6-(2,6-difluoro-4-((7-(methylamino)spiro[3.5]nonan-2-yl)oxy)phenyl)-N-(1,1,1-trifluoropropan-2-yl)-[1,2,4]triazolo[1,5-a]pyrimidin-7-amine] | 0.16 | 0.62
19 | C[C@H](Nc1c(-c2c(F)cc(OC3CC4(CCC(N(C)C)CC4)C3)cc2F)c(Cl)nc2ncnn12)C(F)(F)F (stereo partly drawn) [Example 20, (S)-5-Chloro-6-(2,6-difluoro-4-((7-(dimethylamino)spiro[3.5]nonan-2-yl)oxy)phenyl)-N-(1,1,1-trifluoropropan-2-yl)-[1,2,4]triazolo[1,5-a]pyrimidin-7-amine] | 0.05 | 1.32
